According to the NIST ThermoML archive (doi:10.1021/je0602418):
Several values for one entry are separate records, joined by “and”; a condition that tells them apart may be missing. Identical values can stand only once. ± gives the expanded uncertainty stated by the source.

Conditions: Liquid; for Critical pressure / Critical temperature: pulse heating method

COC(=O)CCCCCCCC(=O)OC [dimethyl nonanedioate]
Conditions	vapor or sublimation pressure
298.1 K	0.00019 ± 2e-05 kPa
303.1 K	0.00028 ± 3e-05 kPa
308.1 K	0.00054 ± 5e-05 kPa
313.2 K	0.0008 ± 8e-05 kPa and 0.00084 ± 8e-05 kPa
318.2 K	0.00138 ± 0.00014 kPa and 0.00131 ± 0.00013 kPa
320.2 K	0.00167 ± 0.00017 kPa and 0.00164 ± 0.00016 kPa
323.3 K	0.00226 ± 0.00023 kPa
323.4 K	0.00228 ± 0.00023 kPa
325.3 K	0.00278 ± 0.00028 kPa
328.3 K	0.00335 ± 0.00034 kPa and 0.00362 ± 0.00036 kPa
330.8 K	0.00466 ± 0.00047 kPa
333.4 K	0.00549 ± 0.00055 kPa and 0.00561 ± 0.00056 kPa
335.9 K	0.00711 ± 0.00071 kPa
338.4 K	0.00771 ± 0.00077 kPa and 0.00858 ± 0.00086 kPa
341 K	0.01011 ± 0.001 kPa
343.4 K	0.01171 ± 0.0012 kPa
343.8 K	0.01311 ± 0.0013 kPa
348.5 K	0.01757 ± 0.0018 kPa
348.6 K	0.0185 ± 0.0019 kPa
351.1 K	0.02169 ± 0.0022 kPa
353.6 K	0.02548 ± 0.0026 kPa and 0.02436 ± 0.0024 kPa and 0.02518 ± 0.0025 kPa
358.6 K	0.03663 ± 0.0037 kPa
358.7 K	0.03635 ± 0.0036 kPa
360.2 K	0.04123 ± 0.0041 kPa
363.7 K	0.05391 ± 0.0054 kPa and 0.05451 ± 0.0054 kPa
366.2 K	0.0656 ± 0.0066 kPa
368.9 K	0.07601 ± 0.0076 kPa and 0.08031 ± 0.008 kPa
371.3 K	0.08918 ± 0.0089 kPa and 0.08695 ± 0.0087 kPa
373.8 K	0.1016 ± 0.01 kPa and 0.1065 ± 0.011 kPa

COC(=O)CCCCCCC(=O)OC [dimethyl octanedioate]
Transpiration method
Conditions	vapor or sublimation pressure [kPa]
293.3 K	0.00062 ± 3e-05
295.3 K	0.00077 ± 4e-05
298.3 K	0.00105 ± 5e-05
303.2 K	0.00169 ± 8e-05
308.3 K	0.00273 ± 0.00014
313.2 K	0.00451 ± 0.00023
318.1 K	0.00698 ± 0.00035
323.1 K	0.01107 ± 0.00055
328.1 K	0.01684 ± 0.00084
333.1 K	0.02524 ± 0.0013
338.1 K	0.03923 ± 0.002
343 K	0.05566 ± 0.0028
348.1 K	0.08123 ± 0.0041
352.1 K	0.1083 ± 0.0054

Conditions	Critical pressure [kPa]	Critical temperature [K]
–	2300 ± 140	723 ± 14

COC(=O)CCCC(=O)OC [dimethyl pentanedioate]
Conditions	Critical pressure [kPa]	Critical temperature [K]	vapor or sublimation pressure
–	2770 ± 160	682 ± 14	–
283.7 K	–	–	0.00275 ± 0.00028 kPa
286.3 K	–	–	0.00357 ± 0.00036 kPa
288.4 K	–	–	0.0043 ± 0.00043 kPa
290.5 K	–	–	0.00564 ± 0.00056 kPa
293.2 K	–	–	0.00758 ± 0.00076 kPa
293.3 K	–	–	0.00747 ± 0.00075 kPa
295.6 K	–	–	0.00958 ± 0.00096 kPa
296.2 K	–	–	0.00984 ± 0.00098 kPa
298.2 K	–	–	0.01214 ± 0.0012 kPa
298.4 K	–	–	0.01204 ± 0.0012 kPa
300.3 K	–	–	0.01479 ± 0.0015 kPa
303.2 K	–	–	0.01881 ± 0.0019 kPa
303.3 K	–	–	0.0193 ± 0.0019 kPa
305.4 K	–	–	0.02301 ± 0.0023 kPa
306.2 K	–	–	0.02388 ± 0.0024 kPa
308.2 K	–	–	0.02904 ± 0.0029 kPa
309.2 K	–	–	0.03102 ± 0.0031 kPa
310.2 K	–	–	0.03348 ± 0.0034 kPa
312.1 K	–	–	0.03995 ± 0.004 kPa
313.2 K	–	–	0.04146 ± 0.0042 kPa
313.5 K	–	–	0.04323 ± 0.0043 kPa
315.2 K	–	–	0.05031 ± 0.005 kPa
315.5 K	–	–	0.05126 ± 0.0051 kPa
316.2 K	–	–	0.05285 ± 0.0053 kPa
318.1 K	–	–	0.06049 ± 0.006 kPa
318.3 K	–	–	0.06276 ± 0.0063 kPa
319.2 K	–	–	0.0664 ± 0.0066 kPa
320.2 K	–	–	0.07343 ± 0.0074 kPa
320.3 K	–	–	0.06968 ± 0.007 kPa
321.4 K	–	–	0.07692 ± 0.0077 kPa
323.2 K	–	–	0.09072 ± 0.0091 kPa
323.3 K	–	–	0.08542 ± 0.0086 kPa and 0.09398 ± 0.0094 kPa
325.2 K	–	–	0.1033 ± 0.01 kPa and 0.1021 ± 0.01 kPa
327.1 K	–	–	0.1263 ± 0.013 kPa
328.3 K	–	–	0.1276 ± 0.013 kPa
329.2 K	–	–	0.148 ± 0.015 kPa
330.2 K	–	–	0.1428 ± 0.014 kPa
331.3 K	–	–	0.1646 ± 0.016 kPa
333.1 K	–	–	0.1752 ± 0.018 kPa
333.2 K	–	–	0.1798 ± 0.018 kPa
335.3 K	–	–	0.1977 ± 0.02 kPa and 0.2051 ± 0.021 kPa
338.3 K	–	–	0.2474 ± 0.025 kPa and 0.2598 ± 0.026 kPa
340.2 K	–	–	0.2719 ± 0.027 kPa
341.3 K	–	–	0.3017 ± 0.03 kPa
343.1 K	–	–	0.3382 ± 0.034 kPa
343.2 K	–	–	0.3425 ± 0.034 kPa
345.2 K	–	–	0.3651 ± 0.037 kPa
348.1 K	–	–	0.4368 ± 0.044 kPa

COC(=O)CCCCCCCCC(=O)OC [dimethyl sebacate]
Conditions	Critical pressure [kPa]	Critical temperature [K]	vapor or sublimation pressure [kPa]
–	2080 ± 120	742 ± 14	–
304.1 K	–	–	0.00014 ± 2e-05
308.1 K	–	–	0.0002 ± 2e-05
313.2 K	–	–	0.00036 ± 4e-05
318.2 K	–	–	0.00059 ± 6e-05
323.4 K	–	–	0.00101 ± 0.0001
328.3 K	–	–	0.00162 ± 0.00016
333.4 K	–	–	0.0025 ± 0.00025
338.4 K	–	–	0.00388 ± 0.00039
343.5 K	–	–	0.00594 ± 0.00059
348.2 K	–	–	0.00839 ± 0.00084
353.6 K	–	–	0.01405 ± 0.0014
355.6 K	–	–	0.01486 ± 0.0015
358.6 K	–	–	0.01849 ± 0.0019
363.7 K	–	–	0.02808 ± 0.0028
368.8 K	–	–	0.03965 ± 0.004
373.8 K	–	–	0.05473 ± 0.0055
